Test results reported in patent US5733749A, “Glycerol phosphatase with stereo-specific activity” (priority 1995, dated 1998).
“Also recorded” adds a separate entry of the source.

Legend:
B. licheniformis D-GPase [1] = target: T1, B. licheniformis D-GPase (Bacillus licheniformis, UniProt Q65CZ1); assay: Effect of ADP and inorganic phosphate on D-GPase activity; type: biochemical
T1 construct: about 25 kDa by gel filtration
T1 sequence (Q65CZ1 1-216): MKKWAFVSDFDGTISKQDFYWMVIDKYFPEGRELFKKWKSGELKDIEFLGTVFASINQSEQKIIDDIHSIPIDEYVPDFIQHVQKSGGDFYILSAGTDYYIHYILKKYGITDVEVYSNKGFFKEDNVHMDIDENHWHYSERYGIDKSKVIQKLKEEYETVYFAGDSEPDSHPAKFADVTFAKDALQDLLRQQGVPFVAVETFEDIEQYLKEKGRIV
Method: GPase activity was measured by combining cell extract and the appropriate stereoisomer(s) (DL or L) of GP, incubating the mixture, terminating the reaction with acid, and determining the glycerol content by high-performance liquid chromatography (HPLC) analysis. Assay mixtures consisted of, in a total of 500 μl:25 mM MgCl2 ; 25-50 mM PIPES [piperazine-N,N'-bis(2-ethanesulfonic acid)], pH 7.1; 25-100 mM substrate; and the required volume of cell extract. Incubations were carried out at 37° C. for 30-150 min in microcentrifuge tubes, then 72 μl of 20% trichloroacetic acid (TCA) was added (2.5% final) to each tube to stop the reaction. The samples were spun in a microcentrifuge to remove any precipitate, and the supernatants were filtered through Supor-200 0.2 μm membrane filters (Gelman Sciences, Ann Arbor, Mich.) and analyzed for glycerol by HPLC. Assays for dephosphorylation of other compounds were also analyzed by HPLC (for the dephosphorylated compound) and carried out in the same way as the assays with GP as substrate. Assays for p-nitrophenyl phosphate (PNPP) hydrolysis were the same as with GP as substrate but were carried out with 1.5 mM PNPP in microtiter plates, and absorbance at 420 nm was used to measure the extent of hydrolysis of PNPP. Calf intestinal alkaline phosphatase was used as a standard to ensure that PNPP could be hydrolyzed under the conditions of the assay.
Assays that were analyzed for inorganic phosphate instead of glycerol were carried out using the procedure of Marsh, Biochim. […] Blanks were identical assays except without substrate.

B. licheniformis D-GPase [2] = target: T1, B. licheniformis D-GPase; type: biochemical; conditions: for Relative activity: chloride of the cation added at 25 mM
Method: (§1) GPase activity was measured by combining cell extract and the appropriate stereoisomer(s) (DL or L) of GP, incubating the mixture, terminating the reaction with acid, and determining the glycerol content by high-performance liquid chromatography (HPLC) analysis. Assay mixtures consisted of, in a total of 500 μl:25 mM MgCl2; 25-50 mM PIPES [piperazine-N,N'-bis(2-ethanesulfonic acid)], pH 7.1; 25-100 mM substrate; and the required volume of cell extract. Incubations were carried out at 37° C. for 30-150 min in microcentrifuge tubes, then 72 μl of 20% trichloroacetic acid (TCA) was added (2.5% final) to each tube to stop the reaction. The samples were spun in a microcentrifuge to remove any precipitate, and the supernatants were filtered through Supor-200 0.2 μm membrane filters (Gelman Sciences, Ann Arbor, Mich.) and analyzed for glycerol by HPLC. Assays for dephosphorylation of other compounds were also analyzed by HPLC (for the dephosphorylated compound) and carried out in the same way as the assays with GP as substrate. Assays for p-nitrophenyl phosphate (PNPP) hydrolysis were the same as with GP as substrate but were carried out with 1.5 mM PNPP in microtiter plates, and absorbance at 420 nm was used to measure the extent of hydrolysis of PNPP. Calf intestinal alkaline phosphatase was used as a standard to ensure that PNPP could be hydrolyzed under the conditions of the assay.
L-GPases reported in the literature require divalent magnesium. Therefore, the inventors tested the effects of addition of the chlorides of three divalent cations: magnesium, manganese, and calcium (25 mM each).

B. licheniformis D-GPase [3] = target: T1, B. licheniformis D-GPase; assay: GPase activity assay, substrate specificity (HPLC of glycerol or dephosphorylated compound); type: biochemical; conditions: PNPP at 1.5 mM read at 420 nm
Method: as §1
Glycerol in fermentation broths and assay mixtures was measured by HPLC. The mobile phase was 0.01N H2 SO4, run at a flow rate of 0.6 ml/min through an Aminex HPX-87H organic acids column (Bio-Rad, Hercules, Calif.), which was maintained at 65° C. Samples were injected by a model AS-100 autosampler, and chromatograms were printed by a model 3392A integrator; the detector was a model 1770 differential refractometer (all from Bio-Rad).
Upon the finding that a GPase was present in B. licheniformis extracts, the inventors sought to determine which GP isomers are dephosphorylated by the enzyme and whether some other common phosphorylated metabolites can also be accepted as substrates. Because the initial assays were conducted with DL-GP, which also contained a small amount of β-GP, the specificity of the enzyme was unclear. HPLC chromatograms of reactions were run with crude cell extract and either DL-GP, L-GP, or β-GP. […] The low activity with pure β-GP rules out the possibility that the activity seen in assays with DL-GP is due to the presence of β-GP as an impurity in the DL-GP preparation.

[S. cerevisiae] α-GPase = Gancedo et al. 1968; cited from earlier work
carbonic anhydrase = conditions: read-out: Km of carbonic anhydrase for carbon dioxide; cited from earlier work
β-galactosidase = conditions: read-out: Km of β-galactosidase for lactose; cited from earlier work
threonine deaminase = conditions: cited from earlier work

Nc1ncnc2c1ncn2[C@@H]1O[C@H](COP(=O)(O)OP(=O)(O)O)[C@@H](O)[C@H]1O [ADP]
effect on specificity and level of D-GPase activity (B. licheniformis D-GPase [1]; 9 mM ADP added to the assays): neither the specificity nor the level of activity of D-GPase was affected

[Ca+2] [Ca^2+]
inhibition of D-GPase activity by the cation (B. licheniformis D-GPase [2]; 25 mM chloride): does not inhibit D-GPase activity | Relative activity (B. licheniformis D-GPase [2]): 0.08

O=C(O)[C@H](O)COP(=O)(O)O [D-3-phosphoglyceric acid]
accepted as substrate / hydrolysis by D-GPase (B. licheniformis D-GPase [3]): little or no hydrolysis; also recorded: does not accept

O=P(O)(O)OC[C@@H](O)CO [D-GP, D-α-glycerophosphate]
efficiency of α-GPase on D-GP relative to that on L-GP ([S. cerevisiae] α-GPase): 1/30

O=P(O)(O)OC[C@H](O)CO [L-α-glycerophosphate]
accepted as substrate / hydrolysis by D-GPase (B. licheniformis D-GPase [3]): does not accept

[Mg+2] [Mg^2+]
Relative activity (B. licheniformis D-GPase [2]): 1.00

[Mn+2] [Mn^2+]
Relative activity (B. licheniformis D-GPase [2]): 0.53

O=C=O [carbon dioxide]
Km (carbonic anhydrase): ~8 mM

O=C(CO)COP(=O)(O)O [dihydroxyacetone phosphate]
accepted as substrate / hydrolysis by D-GPase (B. licheniformis D-GPase [3]; phosphate): little or no hydrolysis; also recorded: does not accept

O=P(O)(O)OC[C@H]1OC(O)[C@H](O)[C@@H](O)[C@@H]1O (some centres unmarked) [glucose-6-phosphate]
accepted as substrate / hydrolysis by D-GPase (B. licheniformis D-GPase [3]): little or no hydrolysis; also recorded: does not accept

O=P(O)(O)O [inorganic phosphate]
D-GPase activity retained (B. licheniformis D-GPase [1]; in the presence of 25 mM inorganic phosphate, in vitro hydrolysis of D-GP): 75% | inhibition of D-GPase activity (B. licheniformis D-GPase [1]; inorganic phosphate present in assays of B. licheniformis extracts): did not acutely inhibit

OC[C@H]1O[C@@H](O[C@H]2[C@H](O)[C@@H](O)C(O)O[C@@H]2CO)[C@H](O)[C@@H](O)[C@H]1O (some centres unmarked) [lactose]
Km (β-galactosidase): ~4 mM

C[C@@H](O)[C@H](N)C(=O)O [threonine]
Km (threonine deaminase): ~5 mM

O=P(O)(O)OC(CO)CO [β-glycerophosphate]
accepted as substrate / hydrolysis by D-GPase (B. licheniformis D-GPase [3]): does not accept

D-glyceraldehyde phosphate
accepted as substrate / hydrolysis by D-GPase (B. licheniformis D-GPase [3]; phosphate): little or no hydrolysis; also recorded: does not accept
